# According to paper PMC8386747, “Structure–activity relationship, in vitro and in vivo evaluation of novel dienyl sulphonyl fluorides as selective BuChE inhibitors for the treatment of Alzheimer's disease” (Journal of Enzyme Inhibition and Medicinal Chemistry, 2021):
# Read-outs that look alike come from different tables or passages of the source.
# Columns and labels:
# [1] = PAMPA-BBB, reported data from the reference; cited from earlier work
# in vitro = settings: PAMPA
# Method: (§1) The 96-well UV plate (COSTAR) was manufactured by Corning Corporation, USA, and the commercially available drugs and test compounds were initially dissolved in DMSO at a concentration of 20 mg/mL. The solution was then diluted 200-fold with PBS (pH 7.4 ± 0.1)/EtOH (70/30, v/v) solution to a final concentration of 100 µg/mL.
# (§2) The test compound was dissolved in DMSO at 5 mg/mL and diluted 200-fold with universal buffer (final concentration 25 µg/mL) to prepare the secondary stock solution; 200 µL of the secondary stock solution was added to the donor well; the acceptor plate was coated with 4 µL of 20 mg/mL dodecyl porcine polar brain, and then, 200 µL of pH 7.4 universal buffer was added to the acceptor well; the acceptor plate was carefully placed on the donor plate to form a “sandwich” and maintained for 18 h; the drug concentrations in the acceptor, donor and reference wells were determined using a UV microplate reader; the experiment was repeated three times, and the concentrations of the test compound in the donor and acceptor wells were measured using a UV plate spectral reader (PerkinElmer VICT or Nivo, Finland). In at least three independent experiments, each sample was analysed at three wavelengths in a four well.
# AChE from electric eel = target: T1, AChE from electric eel (Electrophorus electricus, UniProt O42275); experiment: EeAChE inhibition assay (Ellman's method); type: biochemical; settings: for inhibition at 20 µM: read-out: AChE % inhibition at 20 µM, na = no inhibitory activity at 20 µM
# T1 construct: assays were performed on AChE from electric eel (C3389-500UN; Sigma); purchased Sigma C3389-500UN
# T1 sequence (O42275 24-633): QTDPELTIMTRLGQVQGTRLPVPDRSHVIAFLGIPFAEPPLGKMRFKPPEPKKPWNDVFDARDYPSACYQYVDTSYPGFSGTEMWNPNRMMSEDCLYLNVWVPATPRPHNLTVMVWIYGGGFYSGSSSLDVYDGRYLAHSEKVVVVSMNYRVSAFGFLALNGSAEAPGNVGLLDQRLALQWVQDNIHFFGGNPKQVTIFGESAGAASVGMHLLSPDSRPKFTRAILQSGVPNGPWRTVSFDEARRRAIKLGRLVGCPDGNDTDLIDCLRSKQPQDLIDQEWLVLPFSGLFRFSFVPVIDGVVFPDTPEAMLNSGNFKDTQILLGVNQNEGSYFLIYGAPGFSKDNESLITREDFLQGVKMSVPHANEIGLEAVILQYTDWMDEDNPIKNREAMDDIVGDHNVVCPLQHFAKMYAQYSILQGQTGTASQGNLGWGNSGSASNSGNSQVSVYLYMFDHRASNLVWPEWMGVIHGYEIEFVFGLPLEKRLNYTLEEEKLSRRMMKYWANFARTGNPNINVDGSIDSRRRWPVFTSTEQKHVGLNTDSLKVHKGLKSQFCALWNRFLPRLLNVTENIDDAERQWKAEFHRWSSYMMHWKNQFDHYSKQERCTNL
# Method: (§3) According to the Ellman’s method, assays were performed on AChE from electric eel (C3389-500UN; Sigma) and BuChE from equine serum (C4290-1KU; Sigma). The experiment was performed in 48-well plates in a final volume of 500 µL. Each well contained 0.036 U/mL of eeAChE or eqBuChE, and 0.1 M pH 8 PBS. They were pre-incubated for 20 min at different compound concentrations at 37 °C. […] The DTNB produces the yellow anion 5-thio-2-nitrobenzoic acid along with the enzymatic degradation of ACh or BuCh. Changes in absorbance were measured at 410 nm after 20 min in a PerkinElmer VICTOR Nivo reader. The IC50 values were calculated graphically from inhibition curves (log inhibitor concentration vs percent of inhibition). A control experiment was performed under the same conditions without inhibitor and the blank contained buffer, DMSO, DTNB, and substrate.
# BuChE from equine serum = target: T2, BuChE from equine serum (Equus caballus, UniProt P81908); experiment: eqBuChE inhibition assay (Ellman's method); type: biochemical; settings: BuChE from horse serum; for IC50: mean ± SEM; for inhibition at 20 µM: read-out: BuChE % inhibition at 20 µM
# T2 construct: BuChE from equine serum (C4290-1KU; Sigma); purchased Sigma C4290-1KU; host or cells: equine serum
# T2 sequence (P81908 whole entry): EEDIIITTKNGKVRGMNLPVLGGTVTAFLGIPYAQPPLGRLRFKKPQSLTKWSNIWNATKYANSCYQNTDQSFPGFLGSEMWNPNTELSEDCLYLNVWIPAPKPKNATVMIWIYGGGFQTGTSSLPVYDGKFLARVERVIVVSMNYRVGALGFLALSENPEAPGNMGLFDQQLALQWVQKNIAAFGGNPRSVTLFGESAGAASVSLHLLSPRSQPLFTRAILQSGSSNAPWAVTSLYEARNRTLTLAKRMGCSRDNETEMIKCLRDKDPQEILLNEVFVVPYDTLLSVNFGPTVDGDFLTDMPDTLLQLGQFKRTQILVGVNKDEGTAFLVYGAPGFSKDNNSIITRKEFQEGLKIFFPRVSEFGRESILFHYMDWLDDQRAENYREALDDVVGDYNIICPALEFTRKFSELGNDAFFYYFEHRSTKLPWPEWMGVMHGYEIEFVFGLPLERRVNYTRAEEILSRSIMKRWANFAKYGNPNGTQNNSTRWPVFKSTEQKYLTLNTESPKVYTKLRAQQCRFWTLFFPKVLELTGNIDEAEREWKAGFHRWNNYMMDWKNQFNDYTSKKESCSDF
# Method: as §3
# [2] = for BBB penetration: PAMPA-BBB class
# Method: as §1, §2
# [3] = target: T3, recombinant human AChE (hAChE) (Homo sapiens, UniProt P22303); experiment: hAChE inhibition assay (Ellman's assay); type: biochemical
# T3 construct: purchased Sigma C1682
# T3 sequence (P22303 32-614): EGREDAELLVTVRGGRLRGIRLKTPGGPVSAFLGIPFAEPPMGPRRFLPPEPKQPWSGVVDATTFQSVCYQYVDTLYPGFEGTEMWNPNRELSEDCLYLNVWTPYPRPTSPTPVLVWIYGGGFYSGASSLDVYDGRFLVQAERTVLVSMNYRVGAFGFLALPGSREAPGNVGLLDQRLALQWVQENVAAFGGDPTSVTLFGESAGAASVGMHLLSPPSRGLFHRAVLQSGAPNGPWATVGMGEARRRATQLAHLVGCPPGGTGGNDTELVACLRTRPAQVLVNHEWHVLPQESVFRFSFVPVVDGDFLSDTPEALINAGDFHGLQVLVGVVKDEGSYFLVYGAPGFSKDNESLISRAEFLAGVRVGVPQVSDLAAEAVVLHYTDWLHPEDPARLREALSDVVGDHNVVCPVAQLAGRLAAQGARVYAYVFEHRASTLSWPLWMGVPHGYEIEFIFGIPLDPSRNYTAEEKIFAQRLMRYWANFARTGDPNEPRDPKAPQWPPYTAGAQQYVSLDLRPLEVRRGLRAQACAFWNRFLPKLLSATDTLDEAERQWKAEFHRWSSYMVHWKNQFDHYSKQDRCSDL
# Method: The solution was diluted to 5 concentrations of 200, 100, 10, 1 and 0.1 µM in ethanol. Measurements were performed using 96-well plates. Buffer (40 µL), sample at a series of concentrations (10 µL), AChE (10 µL), and dibutyl succinate (20 µL) were successively added. The mixture was then incubated for 5 min at 37 °C. Then, 20 µL of ACh or BuCh were added and the reaction started. […] For the blank value, 10 µL of water was used instead of the inhibitor solution. The activity of the inhibitor was expressed as a logarithmic plot of the percentage of enzyme activity (with 100% as the reference) versus the concentration of the compound. IC50 values were determined graphically from inhibition curves (log inhibitor concentration versus percent inhibition).
# [4] = tested on: Aβ1-42-induced cognitive dysfunction; experiment: Morris water maze in Aβ1-42-induced cognitive impairment model; type: in vivo, mouse; settings: mice, Aβ1-42 10 µg icv; 15 mg/kg po Day 3 to Day 14
# Method: All experiments were performed according to the National Institutes of Health Guide for the Care and Use of Laboratory Animals. The Measures for the Care and Treatment of Laboratory Animals were approved by the Animal Care and Use Committee of Anhui Medical University. Male ICR mice were used in the animal centre of Anhui Medical University (Hefei). Male mice (18‒24 g) aged 6‒8 weeks, 10 mice per cage, room temperature 22 ± 2 °C, light/dark (12:12 h) cycle. These animals had access to food and water prior to testing. The ambient temperature and relative humidity (50%) of the room remained consistent throughout all tests. Behavioural experiments: MWM was used for cognitive function, and mice were randomly selected for behavioural experiments. Each experimental group consisted of 8‒10 mice/dose. The experimental time was from 08:00 to 14:00, and the mice were sacrificed by cervical dislocation immediately after the end of the experiment. […]. Aβ1-42 aggregation was induced by dissolving the Aβ1-42 peptide in DMSO as a stock solution of 5 mM and incubating it in saline at a final concentration of 2 mg/mL for 24 h at 37 °C.
# The behavioural study was a water maze experimental behavioural study on days 10 − 15, including a 5-day learning and memory training, and a test assessment on day 6. MWM consists of a water-filled pool (grey, circular, 1.20 m in diameter, 0.60 m in height) and a platform with adjustable height and movable position. The pool was divided into four equal quadrants (compass position: NE, NW, SE, SW) using a computerised video tracking system (SMART, version 3.0; Panlab, Spain). The pool was filled with water, generally about 48 cm below the edge, to prevent animals from jumping out, and the water temperature was maintained at 22 ± 1 °C. […] The time to reach the hidden platform (i.e. escape latency), the distance to reach the hidden platform, the distance in the target (NW) area, and the average speed were recorded. […]
# BuChE = tested on: BuChE; design: method as in PMID 31136894; settings: cited from earlier work
# BACE-1 = tested on: BACE-1; design: method as in PMID 28749667, PMID 26696252; settings: cited from earlier work
# GSK-3β = tested on: GSK-3β; design: method as in PMID 28749667, PMID 26696252; settings: read-out: GSK-3μ IC50; cited from earlier work
# [5] = AChE from electric eel, mean ± SEM, read-out: AChE IC50
# [6] = pH 7.4, Pe×10^-6cm/s Exp. value, PAMPA-BBB, three independent experiments
structure (smiles),measurement,setting,value
"Clc1cccc(Cl)c1N=C1NCCN1 [Clonidine, reference compound]",Pe×10^-6cm/s BibL. value,[1],5.3 ×10^-6cm/s
same,Papp,"in vitro; pH 7.4, Pe×10^-6cm/s Exp. value",7.85 ×10⁻⁶ cm/s
O=S(=O)(F)C(Br)=CC=Cc1ccccc1Br [Compound A8],IC50,AChE from electric eel; [5],107 ± 2 nM
same,IC50,BuChE from equine serum,440 ± 180 nM
same,BBB penetration,[2],CNS+ (“CNS +” (high BBB permeation): Pe (× 10^‒6 cm/s) >4.0)
same,Pe×10^-6cm/s Exp. value,"[2]; PAMPA-BBB, three independent experiments",10.7 ×10^-6cm/s
same,Papp,"in vitro; pH 7.4, Pe, PAMPA-BBB",10.7 ×10⁻⁶ cm/s
O=S(=O)(F)C(Br)=CC=Cc1ccc(Cl)nc1 [Compound A18],IC50,AChE from electric eel,79 ± 2 nM
same,inhibition at 20 µM,BuChE from equine serum,42.8 ± 3.6%
same,inhibition at 20 µM,[3],14.3 ± 0.9%
O=S(=O)(F)/C(=C/C=C/c1ccccc1)c1ccc(Br)cc1 [Compound D5],inhibition at 20 µM,AChE from electric eel; AChE from electric eel,29 ± 3.4%
same,inhibition at 20 µM,BuChE from equine serum,30.5 ± 0.9%
O=C(Oc1ccc(/C(=C\C=C\c2ccccc2)S(=O)(=O)F)cc1)c1ccccc1 [Compound D6],inhibition at 20 µM,AChE from electric eel; AChE from electric eel,18.7 ± 2.1%
same,inhibition at 20 µM,BuChE from equine serum,29.7 ± 3.8%
O=S(=O)(F)/C(=C/C=C/c1ccccc1)c1ccc2ccccc2c1 [Compound D7],inhibition at 20 µM,AChE from electric eel; AChE from electric eel,42.3 ± 0.5%
same,inhibition at 20 µM,BuChE from equine serum,7.4 ± 0.2%
O=S(=O)(F)/C(C#Cc1cccc(Br)c1)=C/C=C/c1ccccc1 [Compound D8],IC50,AChE from electric eel; [5],2730 ± 100 nM
same,IC50,BuChE from equine serum,4560 ± 2650 nM
O=S(=O)(F)/C(C#Cc1ccccc1F)=C/C=C/c1ccccc1 [Compound D9],inhibition at 20 µM,AChE from electric eel; AChE from electric eel,47.7 ± 1.9%
same,inhibition at 20 µM,BuChE from equine serum,31.7 ± 1%
O=S(=O)(F)/C(C#Cc1ccc(Br)cc1)=C/C=C/c1ccccc1 [Compound D10],inhibition at 20 µM,AChE from electric eel; AChE from electric eel,36.9 ± 1.2%
same,inhibition at 20 µM,BuChE from equine serum,22.6 ± 0.7%
O=S(=O)(F)/C(C#Cc1ccccc1)=C/C=C/c1ccccc1 [Compound D11],inhibition at 20 µM,AChE from electric eel; AChE from electric eel,30.4 ± 0.1%
same,inhibition at 20 µM,BuChE from equine serum,24.3 ± 0.4%
Cc1ccc(C#C/C(=C\C=C\c2ccccc2)S(=O)(=O)F)cc1 [Compound D12],inhibition at 20 µM,AChE from electric eel; AChE from electric eel,43.5 ± 4%
same,inhibition at 20 µM,BuChE from equine serum,34.7 ± 0.1%
O=S(=O)(F)/C(C#Cc1ccsc1)=C/C=C/c1ccccc1 [Compound D13],inhibition at 20 µM,AChE from electric eel; AChE from electric eel,14.7 ± 0.2%
same,inhibition at 20 µM,BuChE from equine serum,31.3 ± 0.4%
O=S(=O)(F)/C(C#CC1CC1)=C/C=C/c1ccccc1 [Compound D14],IC50,AChE from electric eel; [5],1540 ± 320 nM
same,IC50,BuChE from equine serum,430 ± 80 nM
"COc1cc2c(cc1OC)C(=O)C(CC1CCN(Cc3ccccc3)CC1)C2 (stereo not drawn) [Donepezil, donepezil, reference compound]",effect on Aβ1-42-induced cognitive dysfunction (MWM),[4],significantly improved
"CN1C(C(=O)Nc2ccccn2)=C(O)c2ccccc2S1(=O)=O [Piroxicam, reference compound]",BBB penetration,[2],CNS+ (“CNS +” (high BBB permeation): Pe (× 10^‒6 cm/s) >4.0)
same,Pe×10^-6cm/s BibL. value,[1],9.3 ×10^-6cm/s
same,Papp,in vitro; [6],9.87 ×10⁻⁶ cm/s
"CC(=O)[C@H]1CC[C@H]2[C@@H]3CCC4=CC(=O)CC[C@]4(C)[C@H]3CC[C@]12C [Progesterone, reference compound]",BBB penetration,[2],CNS+ (“CNS +” (high BBB permeation): Pe (× 10^‒6 cm/s) >4.0)
same,Papp,in vitro; [6],18.2 ×10⁻⁶ cm/s
O=C1c2cc(NS(=O)(=O)c3ccccc3OC(F)(F)F)ccc2NC2C3Nc4ccccc4C3CCN12 (stereo not drawn) [Rutaecarpine-6n],IC50,BuChE,3600 nM
COc1cc(/C=C/C(O)=C/C(=O)/C=C/c2ccc(OCc3ccccc3)cc2)ccc1O [curcumin derivative],IC50,BACE-1,970 nM
same,IC50,GSK-3β,900 nM
